Measured values taken from patent US5023266A, “Method of treatment of psychotic disorders” (Synthelabo, priority 1989, dated 1991).

Target: σ-receptor
Experiment: Inhibition of [3H]-(+)-3-PPP binding to the σ-receptor in rat cerebral cortex membranes
Conditions: 2nM [3H]-(+)-3-PPP, 90 min at 25° C., non-specific binding defined with 1μM haloperidol, read-out: IC50, concentration which inhibits 50 percent of the [3H]-(+)-3-PPP binding
Method: In particular their inhibitory activity on the binding of [^3 H](+)3(3-hydroxyphenyl)-N-(1-propyl)-piperidine, or [^3 H]-(+)-3-PPP, to the σ-receptor in the cerebral cortex of rats has been studied, essentially as described in J. Pharmacol. Exp. Ther., 238, 739-748, (1986). Male Sprague-Dawley rats (150-200 g) were sacrificed, and the cerebral cortex was homogenized in 25 volumes of ice-cold Tris-HCl buffer (pH 7.4 at 25° C.) with the use of an Ultra-Turrax™ polytron. The homogenate was washed twice by centrifugation (10 min at 45,000g) and intermittent resuspension of the resulting pellet in fresh buffer. The final pellet was resuspended in 20 volumes of 50mM Tris-HCl buffer (pH 8.0 at 22° C.). A 75 μl aliquot of this membrane preparation was then incubated in a final volume of 250 μl with 2nM [^3 H]-(+)-3-PPP (specific activity 90 Ci/mmol; New England Nuclear) for 90 min at 25° C., in the absence or in the presence of competing drugs. After incubation, the membranes were recovered by filtration over 0.05% polyethyleneimine-pretreated Whatman™ GF/B filters using a Skatron™ Cell Harvester, and washed with ±2.5 ml of ice-cold 50mM Tris-HCl buffer (pH 7.7 at 0° C.). Non-specific binding was defined with 1μM haloperidol.
Data were analyzed by conventional graphical techniques and least-squares regression analysis where appropriate.
The following Table indicates the IC50 of the compounds, i.e. the concentration (μM) which inhibits 50 percent of the [^3 H]-(+)-3-PPP.

SMILES | IC50
OC(CN1CCC(Cc2ccc(F)cc2)CC1)c1ccc(Cl)cc1 (racemic) [Compound 5] | 3 nM
C[C@@H]([C@H](O)c1ccc(O)cc1)N1CCC(Cc2ccccc2)CC1 (relative stereo) [Compound 1] | 8 nM
C[C@H]([C@H](O)c1ccc(O)cc1)N1CCC(Cc2ccccc2)CC1 (relative stereo) [Compound 2] | 10 nM
C[C@@H]([C@H](O)c1ccc(O)cc1)N1CCC(Cc2ccccc2)CC1 (single isomer, unassigned) [Compound 3] | 15 nM
C[C@@H]([C@H](O)c1ccc(O)cc1)N1CCC(Cc2ccccc2)CC1 (single isomer, unassigned) [Compound 4] | 7 nM
OC(CN1CCC(Cc2ccc(F)cc2)CC1)c1ccc(Cl)cc1 (single isomer, unassigned) [Compound 6] | 9.2 nM
OC(CN1CCC(Cc2ccc(F)cc2)CC1)c1ccc(Cl)cc1 (single isomer, unassigned) [Compound 7] | 9.8 nM
